Laboratory results from ChEMBL document CHEMBL1201862, “PubChem BioAssay data set” (2004).
Calls of active or inactive are those of the source.

Legend:
Vero = experiment: cells; format: functional; conditions: Chlorocebus sabaeus
Galanin receptor type 3 = target: T1, Galanin receptor type 3 (Homo sapiens, UniProt O60755); experiment: Fluorescence-based cell-based primary high throughput dose response assay to identify antagonists of the Galanin Receptor 3 (GalR3).; format: functional
T1 sequence (O60755 whole entry): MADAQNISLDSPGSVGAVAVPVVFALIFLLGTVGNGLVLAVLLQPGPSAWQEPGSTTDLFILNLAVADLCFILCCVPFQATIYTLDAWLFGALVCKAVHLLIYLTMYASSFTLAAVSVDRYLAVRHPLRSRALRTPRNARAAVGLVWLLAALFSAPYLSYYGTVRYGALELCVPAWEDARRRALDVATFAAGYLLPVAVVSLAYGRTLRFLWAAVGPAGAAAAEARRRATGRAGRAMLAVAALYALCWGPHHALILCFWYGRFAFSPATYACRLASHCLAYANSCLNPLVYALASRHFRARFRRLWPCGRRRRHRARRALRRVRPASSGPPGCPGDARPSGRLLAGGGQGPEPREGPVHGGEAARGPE

cells = format: functional, cell-based; conditions: HEK-CNG
[1] = target: SWI/SNF-related matrix-associated actin-dependent regulator of chromatin subfamily A member 2 (Homo sapiens, UniProt P51531); experiment: Luminescence-based cell-based high throughput dose response assay to identify activators of the function of SWI/SNF related, matrix associated, actin dependent regulator of chromatin, subfamily a, member 2 (SMARCA2, BRM).; format: functional
Chain of SWI/SNF-related matrix-associated actin-dependent regulator of chromatin subfamily A member 2 (P51531 whole entry): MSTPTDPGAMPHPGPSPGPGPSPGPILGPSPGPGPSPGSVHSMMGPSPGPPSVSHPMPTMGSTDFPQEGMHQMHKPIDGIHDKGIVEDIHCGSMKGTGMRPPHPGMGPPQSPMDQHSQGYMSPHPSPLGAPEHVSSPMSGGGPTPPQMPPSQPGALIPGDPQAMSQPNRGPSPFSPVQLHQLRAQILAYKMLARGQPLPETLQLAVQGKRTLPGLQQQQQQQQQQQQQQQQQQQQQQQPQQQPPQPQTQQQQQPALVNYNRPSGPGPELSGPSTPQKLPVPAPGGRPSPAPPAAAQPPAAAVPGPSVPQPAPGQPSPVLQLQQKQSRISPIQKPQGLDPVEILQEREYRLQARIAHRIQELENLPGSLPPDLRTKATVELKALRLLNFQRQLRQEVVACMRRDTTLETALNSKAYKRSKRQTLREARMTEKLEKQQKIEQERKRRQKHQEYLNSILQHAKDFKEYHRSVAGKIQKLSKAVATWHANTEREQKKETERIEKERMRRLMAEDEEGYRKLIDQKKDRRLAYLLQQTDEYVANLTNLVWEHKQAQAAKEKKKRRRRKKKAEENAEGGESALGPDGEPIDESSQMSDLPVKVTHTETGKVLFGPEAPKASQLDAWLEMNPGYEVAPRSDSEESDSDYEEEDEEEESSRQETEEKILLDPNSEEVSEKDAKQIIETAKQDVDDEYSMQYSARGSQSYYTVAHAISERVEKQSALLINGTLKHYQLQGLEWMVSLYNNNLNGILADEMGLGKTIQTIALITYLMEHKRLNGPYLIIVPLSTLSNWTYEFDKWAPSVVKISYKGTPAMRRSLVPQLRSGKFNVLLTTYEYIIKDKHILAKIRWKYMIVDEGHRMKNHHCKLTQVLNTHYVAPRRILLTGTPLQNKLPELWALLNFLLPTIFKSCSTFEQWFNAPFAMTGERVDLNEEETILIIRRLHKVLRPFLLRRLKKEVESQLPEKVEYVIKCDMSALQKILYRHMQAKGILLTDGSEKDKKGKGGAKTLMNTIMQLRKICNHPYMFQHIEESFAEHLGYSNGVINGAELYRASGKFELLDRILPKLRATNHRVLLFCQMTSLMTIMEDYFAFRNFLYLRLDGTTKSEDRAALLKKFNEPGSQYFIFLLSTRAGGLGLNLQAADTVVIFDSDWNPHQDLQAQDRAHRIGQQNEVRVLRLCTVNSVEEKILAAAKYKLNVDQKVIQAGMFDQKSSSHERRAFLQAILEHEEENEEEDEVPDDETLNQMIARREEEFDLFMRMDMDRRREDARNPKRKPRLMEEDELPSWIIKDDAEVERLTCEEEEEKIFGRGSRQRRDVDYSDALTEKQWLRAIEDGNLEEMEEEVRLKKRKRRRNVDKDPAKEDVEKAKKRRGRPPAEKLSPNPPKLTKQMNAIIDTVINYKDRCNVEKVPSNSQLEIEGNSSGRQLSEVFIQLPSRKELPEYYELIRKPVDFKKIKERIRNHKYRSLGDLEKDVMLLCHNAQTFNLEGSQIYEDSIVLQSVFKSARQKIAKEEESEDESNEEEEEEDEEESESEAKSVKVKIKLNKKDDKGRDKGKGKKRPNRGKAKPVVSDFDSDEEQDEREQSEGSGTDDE

[2] = Counterscreen for activators of the function of SWI/SNF related, matrix associated, actin dependent regulator of chromatin, subfamily a, member 2 (SMARCA2, BRM): Luminescence-based cell-based high throughput dose response assay to identify non-selective compounds using the VP16 reporter assay.; format: functional
[3] = NIH-3T3 fibroblast cytotoxicity, dose response, cytotoxicity control, cell-based, fluorescence, Alamar Blue, secondary assay (AID 2327); format: functional;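 note: NIH-3T3 mouse fibroblasts cultured with fluconazole at 8 µg/mL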
[4] = C. albicans growth with fluconazole, confirmation, fluorescence, retest (AID 2467); format: functional, cell-based
[5] = growth suppression of PTEN-null colon cells, dose response, cell-based, HCT116 PTEN knockout (AID 1047); format: functional;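 note: HCT116 colon tumor cells with PTEN knocked out; cells exposed to compound for 60 hours before readout; potency for loss of cell viability measured by luminescence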
[6] = growth suppression of beta-catenin-knockout colon cells, dose response, cell-based, HCT116, human colon tumor (AID 1045); format: functional;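 note: HCT116 colon tumor cells with beta catenin knocked out; cells exposed to compound for 60 hours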
INS1 = experiment: beta cell apoptosis inhibitors, cytokine rescue, dose response, luminescence, retest (AID 449756); format: functional, cell-based; conditions: Rattus norvegicus;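 note: cell death triggered by IL-1 beta plus TNF-alpha plus IFN-gamma mixture; protective hits raise ATP signal compared with cytokine alone wells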
[7] = inhibitors of HIV Env-driven cell fusion, dose response, cherry-pick (AID 652057); format: functional, cell-based
[8] = CEM21 lymphoblast cell cytotoxicity, dose response, cytotoxicity control for viral fusion inhibitor project, CellTiter-Glo luminescence, cherry-picked (AID 652042); format: functional, cell-based;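 note: potency for signal decrease meaning cytotoxicity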
[9] = ZM109 Env clade C HIV-1 fusion inhibitors, dose response, HeLa effector, CEM target cells, luciferase, cherry-pick (AID 652058); format: functional, cell-based
[10] = off-target signal loss in HeLa-CEM21 co-culture – HeLa F-luc CTL cells, cherry-picked, counter-screen for HIV-1 Env fusion inhibitor project, dose response (AID 652040); format: functional, cell-based;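 note: potency for signal decrease marking cytotoxic or nonspecific inhibition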
[11] = inhibitors of clade B AD8 Env fusion, dose response, cell-based, cherry-pick (AID 652062); format: functional;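 note: luciferase signal from cell-cell fusion driven by HIV-1 clade B AD8 Env; potency is for inhibitors of fusion seen as a drop in luminescence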
[12] = target: Photoreceptor-specific nuclear receptor (Homo sapiens, UniProt Q9Y5X4); format: functional, cell-based;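 note: CHO-S cells with Gal4-NCOR and VP16-NR2E3 two-hybrid luciferase reporter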
Chain of Photoreceptor-specific nuclear receptor (Q9Y5X4 whole entry, the tested form may be a part): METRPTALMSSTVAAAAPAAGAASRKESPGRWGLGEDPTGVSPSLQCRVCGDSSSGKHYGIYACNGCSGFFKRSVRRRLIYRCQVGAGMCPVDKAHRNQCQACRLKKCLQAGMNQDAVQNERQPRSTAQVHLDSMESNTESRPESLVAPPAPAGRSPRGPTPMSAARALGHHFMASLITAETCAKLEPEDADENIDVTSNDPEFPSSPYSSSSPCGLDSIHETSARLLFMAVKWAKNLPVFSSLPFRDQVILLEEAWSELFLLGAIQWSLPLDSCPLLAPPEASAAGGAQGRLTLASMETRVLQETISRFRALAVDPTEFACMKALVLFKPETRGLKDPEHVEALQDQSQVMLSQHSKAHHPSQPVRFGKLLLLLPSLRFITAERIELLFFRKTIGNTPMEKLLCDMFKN

[13] = ARNT/TACC3 interaction disruptors, potency, confirmation, biochemical, AlphaScreen, cherry-picked samples (AID 651703); format: functional, Homo sapiens;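 note: His-tagged ARNT PAS-B domain paired with GST-TACC3 E629A dimer coactivator fragment; potency of inhibitors that break up the complex and lower AlphaScreen signal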
[14] = target: T2, Sentrin-specific protease 8 (Homo sapiens, UniProt Q96LD8); experiment: SENP8 protease inhibitors, SAR follow-up, biochemical, luminescence (AID 504501); format: functional
T2 sequence (Q96LD8 whole entry): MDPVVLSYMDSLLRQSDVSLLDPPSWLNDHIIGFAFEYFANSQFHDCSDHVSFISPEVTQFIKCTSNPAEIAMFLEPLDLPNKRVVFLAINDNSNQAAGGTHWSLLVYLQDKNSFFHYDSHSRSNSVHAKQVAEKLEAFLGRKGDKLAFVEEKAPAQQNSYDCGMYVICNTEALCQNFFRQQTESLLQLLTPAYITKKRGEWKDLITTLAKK

Caspase-3 = target: T3, Caspase-3 (Homo sapiens, UniProt P42574); experiment: SAR Analysis of small molecule inhibitors of Sentrin-specific proteases (SENPs) using a Caspase-3 Selectivity assay. [Related pubchem assays (depositor defined):AID2540, AID2599, AID434973, AID489001]; format: functional
T3 sequence (P42574 whole entry): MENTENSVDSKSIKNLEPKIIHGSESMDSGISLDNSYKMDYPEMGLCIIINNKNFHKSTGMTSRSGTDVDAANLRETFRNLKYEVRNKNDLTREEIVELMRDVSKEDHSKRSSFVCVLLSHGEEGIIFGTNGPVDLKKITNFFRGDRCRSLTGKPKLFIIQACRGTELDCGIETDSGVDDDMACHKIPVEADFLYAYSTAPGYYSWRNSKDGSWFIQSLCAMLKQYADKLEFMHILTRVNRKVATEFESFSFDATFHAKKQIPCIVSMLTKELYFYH

[15] = target: T4, Sentrin-specific protease 6 (Homo sapiens, UniProt Q9GZR1); experiment: SAR Analysis of small molecule inhibitors of Sentrin-specific protease 6 (SENP6) using a Luminescent assay. [Related pubchem assays (depositor defined):AID2582, AID2599]; format: functional
T4 sequence (Q9GZR1 whole entry): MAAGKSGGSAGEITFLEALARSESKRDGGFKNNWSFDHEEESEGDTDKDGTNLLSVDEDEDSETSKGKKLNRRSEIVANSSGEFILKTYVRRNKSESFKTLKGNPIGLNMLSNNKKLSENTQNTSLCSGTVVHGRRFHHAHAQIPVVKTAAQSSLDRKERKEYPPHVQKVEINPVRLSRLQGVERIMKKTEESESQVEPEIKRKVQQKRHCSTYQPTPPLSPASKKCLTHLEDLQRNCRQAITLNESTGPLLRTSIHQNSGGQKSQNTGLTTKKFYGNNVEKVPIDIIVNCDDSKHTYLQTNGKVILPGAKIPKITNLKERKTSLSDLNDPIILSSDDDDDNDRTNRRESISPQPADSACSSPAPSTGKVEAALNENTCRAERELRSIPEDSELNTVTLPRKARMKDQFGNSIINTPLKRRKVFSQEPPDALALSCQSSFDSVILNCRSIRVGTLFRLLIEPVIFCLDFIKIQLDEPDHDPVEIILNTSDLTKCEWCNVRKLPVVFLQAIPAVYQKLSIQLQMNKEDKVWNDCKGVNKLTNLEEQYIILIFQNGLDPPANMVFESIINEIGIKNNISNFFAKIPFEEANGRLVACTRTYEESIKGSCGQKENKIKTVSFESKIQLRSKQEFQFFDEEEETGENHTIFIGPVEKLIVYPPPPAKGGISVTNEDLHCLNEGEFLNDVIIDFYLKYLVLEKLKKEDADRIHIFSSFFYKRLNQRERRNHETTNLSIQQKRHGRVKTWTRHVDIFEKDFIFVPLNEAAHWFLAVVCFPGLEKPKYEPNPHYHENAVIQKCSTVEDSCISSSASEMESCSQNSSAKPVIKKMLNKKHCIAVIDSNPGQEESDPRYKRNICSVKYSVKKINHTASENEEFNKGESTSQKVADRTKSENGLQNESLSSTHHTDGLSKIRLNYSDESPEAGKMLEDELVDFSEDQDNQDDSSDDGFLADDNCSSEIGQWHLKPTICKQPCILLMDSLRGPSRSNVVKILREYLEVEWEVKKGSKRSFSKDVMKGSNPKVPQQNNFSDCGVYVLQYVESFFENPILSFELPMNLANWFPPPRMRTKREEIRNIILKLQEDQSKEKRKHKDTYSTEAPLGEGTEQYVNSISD

[16] = target: T5, Sentrin-specific protease 7 (Homo sapiens, UniProt Q9BQF6); experiment: SENP7 protease inhibitors, SAR follow-up, biochemical, luminescence (AID 504497); format: functional
T5 sequence (Q9BQF6 whole entry): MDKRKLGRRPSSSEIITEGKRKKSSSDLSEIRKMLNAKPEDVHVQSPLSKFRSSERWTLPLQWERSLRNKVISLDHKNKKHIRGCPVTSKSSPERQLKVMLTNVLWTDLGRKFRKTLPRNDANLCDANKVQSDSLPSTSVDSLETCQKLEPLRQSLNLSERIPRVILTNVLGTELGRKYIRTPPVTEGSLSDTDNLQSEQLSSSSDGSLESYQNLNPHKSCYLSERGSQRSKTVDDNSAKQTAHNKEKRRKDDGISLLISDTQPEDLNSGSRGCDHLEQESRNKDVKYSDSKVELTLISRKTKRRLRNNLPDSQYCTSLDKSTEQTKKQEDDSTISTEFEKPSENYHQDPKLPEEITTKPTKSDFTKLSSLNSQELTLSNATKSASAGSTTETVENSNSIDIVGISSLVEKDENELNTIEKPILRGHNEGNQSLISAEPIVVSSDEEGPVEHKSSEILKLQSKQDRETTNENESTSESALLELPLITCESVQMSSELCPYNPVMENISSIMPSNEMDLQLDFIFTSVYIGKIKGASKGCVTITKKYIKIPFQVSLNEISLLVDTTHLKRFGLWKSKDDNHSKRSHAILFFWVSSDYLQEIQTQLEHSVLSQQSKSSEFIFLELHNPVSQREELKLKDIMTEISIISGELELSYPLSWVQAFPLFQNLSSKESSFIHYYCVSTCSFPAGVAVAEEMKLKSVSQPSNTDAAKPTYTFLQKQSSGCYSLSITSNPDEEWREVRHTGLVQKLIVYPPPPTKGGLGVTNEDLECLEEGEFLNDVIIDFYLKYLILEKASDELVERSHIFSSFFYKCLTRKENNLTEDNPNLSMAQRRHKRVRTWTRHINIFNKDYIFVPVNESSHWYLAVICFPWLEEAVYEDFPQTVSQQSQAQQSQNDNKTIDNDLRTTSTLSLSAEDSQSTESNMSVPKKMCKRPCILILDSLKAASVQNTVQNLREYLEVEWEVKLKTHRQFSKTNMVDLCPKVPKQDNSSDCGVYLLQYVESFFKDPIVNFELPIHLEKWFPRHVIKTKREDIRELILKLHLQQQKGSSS

P388/ADR = experiment: cells; format: functional; conditions: Mus musculus
SN12K1 = experiment: cells; format: functional; conditions: Homo sapiens
P388 = experiment: cells; format: functional; conditions: Mus musculus

SMILES: CN(C)CC1CCC/C(=C\c2ccc(OC(=O)/C=C/c3ccccc3)cc2)C1=O (configuration not stated)
- CC50 (Vero): > 25 µM (active)

SMILES: Cc1n[nH]c(NCCO)c1[N+](=O)[O-]
- IC50 (Galanin receptor type 3): > 29.9 µM (inactive)
- EC50 (cells): > 29.9 µM (inactive)

SMILES: O=C(c1noc2c1CCc1ccccc1-2)N1CCOCC1
- EC50 [1]: > 91.2 µM (inactive)
- EC50 [2]: > 91.2 µM (inactive)

SMILES: COc1cccc(CNCCc2c[nH]c3ccccc23)c1OCc1ccccc1F
- EC50 [3]: > 150 µM (inconclusive)
- EC50 [4]: 1.5 µM (active)
- EC50 [5]: 5.56 µM (active)
- EC50 [6]: 4.65 µM (active)
- AC50 (INS1): 8.08 µM (active)
- AC50 [7]: 3.52 µM (active)
- AC50 [8]: 9.93 µM (active)
- AC50 [9]: 25.6 µM (active)
- AC50 [10]: 23.2 µM (active)
- AC50 [11]: 7.5 µM (active)

SMILES: Nc1ccc(O)cc1C(=O)OCC(=O)c1ccc(C2CCCCC2)cc1
- AC50 [8]: 2.3 µM (active)
- AC50 [9]: 0.865 µM (active)
- AC50 [10]: 40.9 µM (active)
- AC50 [11]: 2.09 µM (active)

SMILES: O=C(Nc1ccc(Cn2cccn2)cc1)c1ccc(COc2ccccc2Br)cc1
- IC50 [12]: 4.43 µM (active)

SMILES: CC1=Nn2c(nnc2-c2ccccn2)SC1
- AC50 [13]: 84.7 µM (active)

SMILES: COc1ccc(OC)c(-c2cc(C(=O)N3CCN(c4ncccn4)CC3)c3ccccc3n2)c1
- AC50 [13]: 127 µM (active)

SMILES: Cc1onc(-c2ccccc2Cl)c1C(=O)Nc1nc2c(s1)CCCC2
- IC50 [12]: 1.25 µM (active)

SMILES: COc1ccc(/C=N/Nc2nc(NCc3ccccc3)nc(N(C)C)n2)cc1Br
- IC50 [14]: > 99 µM (inactive)
- IC50 (Caspase-3): > 99 µM (inactive)
- IC50 [15]: > 99 µM (inactive)
- IC50 [16]: > 99 µM (inactive)

SMILES: C(/C=C/c1ccccc1)=N/Nc1cc(N2CCCC2)nc(N2CCCC2)n1
- IC50 [14]: 43.5 µM (active)
- IC50 (Caspase-3): > 99 µM (inactive)
- IC50 [15]: 11 µM (active)
- IC50 [16]: 32.9 µM (active)

SMILES: CCOc1ccc(C(=O)Nc2ccc3ccccc3c2)cc1Br
- IC50 [14]: > 99 µM (inactive)
- IC50 (Caspase-3): > 99 µM (inactive)
- IC50 [15]: > 99 µM (inactive)
- IC50 [16]: > 99 µM (inactive)

SMILES: CN(C)CCSc1nccc(-c2ccc(-c3ccnc(SCCN(C)C)n3)s2)n1
- GI50 (P388/ADR): 2.35 µM (inactive)
- GI50 (SN12K1): 11.1 µM (inactive)
- GI50 (P388): 1.04 µM (active)

SMILES: COc1nc(N)nc2nc[nH]c12
- GI50 (P388/ADR): 265 µM (inactive)
- GI50 (SN12K1): 383 µM (inactive)
- GI50 (P388): 339 µM (inactive)

SMILES: COc1cc2c(cc1OC)C(OC)N(C)c1c-2ccc2cc3c(cc12)OCO3 (configuration not stated)
- GI50 (P388/ADR): 2.58 µM (inactive)
- GI50 (SN12K1): 0.652 µM (active)
- GI50 (P388): 0.667 µM (active)

SMILES: NC1(C(=O)O)CCc2ccc(N(CCCl)CCCl)cc2C1 (configuration not stated)
- GI50 (P388/ADR): 10.9 µM (inactive)
- GI50 (SN12K1): 64.1 µM (inactive)
- GI50 (P388): 1.67 µM (inactive)
